Legend:
[1] = The Merck Index, 9th edition (#221); cited from earlier work
[2] = test system: NS-1 myeloma cells; assay: NS-1 myeloma in inoculated mice, early intervention; format: in vivo
Description: To assure NS-1 propagation in vivo it is essential to remove DMSO (the cryostatic agent dimethyl sulfoxide) through several medium changes and dilutions; this also serves to maintain the cells in log-phases growth. […] The mice were maintained with Wayne Rodent Blox (Wayne Research Animal Diets, Chicago, Ill., USA) ad lib. and tap water.
The inoculated mice were compared to a) untreated controls and b) to carrier-injected (saline-injected) controls.

[3] = test system: NS-1 myeloma cells; format: in vivo; conditions: single mouse, 100 μg/kg; tumor cells remained in skeletal muscle, subcutaneous tissue, a mammary gland
Procedure: NS-1 myeloma cells (ATCC TIB 18, P3/NS1/1-Ag4-1) were employed as inoculant; these cells have proven to be about 90% effective in establishing myelomas in mice according to the exemplified procedure, and the untreated myelomas are substantially fatal within about two weeks.
The cells were grown for several passages (preferably one week) in a sterile environment consisting of RPMI 1640 (Whittaker M. A. Bioproducts, Walkersville, Md., USA) containing 10% fetal calf serum (Hyclone Laboratories, Logan, Utah, USA), 2 mM L-glutamine, 5,000 units of penicillin, and 5 mg streptomycin in 75 cm^2 polystyrene tissue-culture flasks (Corning Glassworks, Corning, N.Y., USA) in a humidified chamber at 37° C. and under 6% CO2. To assure NS-1 propagation in vivo it is essential to remove DMSO (the cryostatic agent dimethyl sulfoxide) through several medium changes and dilutions; this also serves to maintain the cells in log-phases growth. […]
Wasting of the tumor and not the mouse proper was confirmed by weighing the debulked carcass. […] It was thus tentatively determined that the bone demineralized due to rapid growth of the tumor resulting in the fracture, a process which requires calcium and phosphate, and which would also explain the subsequent rapid extraskeletal deposition of calcium phosphate as the tumor was resorbed.

[4] = test system: IMR-90 human fetal lung fibroblasts; assay: Maximum population doubling level (PDL) of IMR-90 fibroblasts, delay of cellular senescence; format: cell-based
Description: This cell line is available from the American Type Culture Collection (ATCC, Bethesda, Md., USA) and is used as a standard for in vitro cellular senescence studies. Cellular senescence is loosely defined as those cellular process(es) that together result in the cell's inability to replenish itself in culture. This model represents aging processes in vivo, and cell lines developed from humans of different ages have PDL's in vitro which are inversely related to the chronological age of the donor. The IMR-90 cells depicted in FIG. 1 were grown under ideal conditions in McCoy's 5A synthetic medium supplemented with HEPES buffer at 10 mM; 100 units penicillin G/ml and 100 μg streptomycin/ml at standard concentrations; new born calf serum (NBCS) at 20% (V/V); and L-glutamine at 2 mM. The treated cell cultures were augmented with different concentrations of β-alethine (as indicated) dissolved in phosphate-buffered saline (PBS)—-always in a standard volume of 30 microliters per culture. […] The cells were then washed twice with the complete medium and counted in a double Neubauer hemacytometer; 2 million cells were aliquoted into a fresh tissue culture flask (T-75, polystyrene by LUX, Flow General, McClean, Md., USA) with 20 ml of fresh complete medium. […]

[5] = test system: human peripheral blood leukocytes (HPBLs); assay: Non-antigen-specific immunoglobulin synthesis and secretion by HPBLs, protein-A facilitated plaque assay (Ig-PFC); format: cell-based
Description: FIG. 2 illustrates data from a series of experiments designed to assess the effect of β-alethine on non-antigen-specific immunoglobulin synthesis and secretion in vitro by human peripheral blood leukocytes (HPBLs), generally characterized as a peripheral lymphoid organ primarily populated by medium-sized, mature lymphocytes. In these experiments, blood was taken from healthy male humans; the blood was then defibrinated on glass beads, and the leukocytes separated by centrifugation (buffy coat technique). Residual red blood cells were lysed with a brief treatment with 0.85% ammonium chloride. The leukocytes were counted and dispensed into 24 well tissue culture trays (LUX, Flow General, McClean, Md., USA) in 1 ml of RPMI 1640 basal medium supplemented with penicillin, streptomycin, 10% fetal calf serum, and L-glutamine. β-alethine was added to test cultures at various concentrations in 30 microliter doses. The cells were harvested as indicated in FIG. 2 at various times between 72 and 144 hours of culture and tested for antibody production using a conventional protein-A facilitated plaque assay (A-PFC or Ig-PFC). […] In addition, aliquots of cells were also tested for proliferation status by treating them with 0.5 μCi of tritiated thymidine (6-9 Ci/mole) followed by assessing the level of incorporation of radioactivity into newly synthesized DNA. […]

[6] = test system: Murine hepatocytes; assay: Adaptation of culture-resistant hepatocytes to culture (colony count); format: cell-based, BALBc/J mice
Description: FIG. 4 illustrates data from a single experiment designed to study the use of β-alethine for adapting cells to culture. The culture-resistant cells employed (hepatocytes) were taken from in vivo to in vitro growth. Murine hepatocytes were chosen owing to their being especially difficult to adapt to culture. […] In this experiment a single liver lobe from one of the BALBc/J mice was excised, pressed through a 90 mesh stainless steel screen, washed, and placed in T-25 tissue culture flasks (10 for LUX, Flow General, McClean, Md., USA). All cultures were maintained in 10 ml of the same medium as described in Example III (RPMI-1640 plus fetal calf serum plus pen/strep plus L-glutamine) and the test cultures exposed to various concentrations of β-alethine as indicated in FIG. 4. […] It was possible to obtain some viable colonies from the control cultures, but only if 10- to 20-fold higher initial cell concentrations were used; therefore the β-alethine was between 500- and 1000-fold more efficient in adapting murine hepatocytes to in vitro culture than control, i.e., saline-treated medium. […] The effect is again dose-dependent, as illustrated.

[7] = i.p., Monday, Wednesday, Friday from day 2 through day 47

Row | Structure (SMILES) | stability in air and aqueous solutions [1] | deaths ([2]; 10 pg/kg mouse) | normal weight gain of the mice ([2]; 10 μg/kg) | persistence of the palpable tumor before regression ([2]; 10 μg/kg, one mouse) [days] | normal weight gain of the mice ([2]; 100 μg/kg) | fraction of animals that ultimately contracted tumor ([2]; at about 10 pg/kg or 1 ng/kg, without treatment 75% euthanized or died) | mice developing a palpable tumor ([2]; at about 10 μg/kg or 100 μg/kg) | therapeutic minimal threshold (lower end of effective range) for preventing onset of NS-1 myeloma [2, 7] [pg/kg mouse] | upper end of effective concentration range for preventing onset of NS-1 myeloma [2, 7] [μg/kg mouse] | morphology of tumors developing under therapy ([2]; untreated controls typically developed ascites) | tumor cells in remaining organs (histology) [3] | increase in cell number (biomass) ([4]; absolute terms, factor of 2 raised to the power 55) | life expectancy of the cells ([4]; augmentation of growth versus untreated cells) | optimal concentration for immunoglobulin production ([5]; HPBLs) | immunoglobulin production relative to untreated control ([5]; dose-dependent, 72 to 144 hours of culture) | colonies of hepatocytes observed ([6]; 10 ng/ml, no colonies in the control culture) | stability of treated cells in culture ([6]; long-term culture, in contrast to control cells)
1 | NCCC(=O)NCCS [β-aletheine] | unstable in air and aqueous solutions | – | – | – | – | – | – | – | – | – | – | – | – | – | – | – | –
2 | NCCC(=O)NCCSSCCNC(=O)CCN [β-alethine, N,N′-bis-(β-alanyl-2-aminoethyl) Disulfide] | – | two deaths | not significantly | 20 | slightly inhibited | one-third to two-thirds | only one mouse developed a palpable tumor | 10 | 100 | with few exceptions solid masses | none of the remaining organs contained tumor cells | 3.6×10^16 fold | doubling of the life expectancy | about 5 nanograms/ml culture | approximately 60 times the untreated control levels | approximately 50 colonies | stable in culture

From patent US20040110680A1, “Beta-alethine use in cell culture and therapy” (Regents of the University of New Mexico, priority 1990, published 2004)
